Source: ChEMBL document CHEMBL3397013, “Target engagement in lead generation” (Bioorg Med Chem Lett, 2015)
Each block holds one molecule with its values, some of them ahead of it.

Legend:
[1] = molecular target: cAMP and cAMP-inhibited cGMP 3',5'-cyclic phosphodiesterase 10A (Homo sapiens, UniProt Q9Y233); assay: Inhibition of human PDE10A
[2] = Inhibition of human PDE isoforms
[3] = molecular target: T1, Tyrosine-protein kinase ITK/TSK (Homo sapiens, UniProt Q08881); assay: Inhibition of human ITK
T1 sequence (Q08881 whole entry): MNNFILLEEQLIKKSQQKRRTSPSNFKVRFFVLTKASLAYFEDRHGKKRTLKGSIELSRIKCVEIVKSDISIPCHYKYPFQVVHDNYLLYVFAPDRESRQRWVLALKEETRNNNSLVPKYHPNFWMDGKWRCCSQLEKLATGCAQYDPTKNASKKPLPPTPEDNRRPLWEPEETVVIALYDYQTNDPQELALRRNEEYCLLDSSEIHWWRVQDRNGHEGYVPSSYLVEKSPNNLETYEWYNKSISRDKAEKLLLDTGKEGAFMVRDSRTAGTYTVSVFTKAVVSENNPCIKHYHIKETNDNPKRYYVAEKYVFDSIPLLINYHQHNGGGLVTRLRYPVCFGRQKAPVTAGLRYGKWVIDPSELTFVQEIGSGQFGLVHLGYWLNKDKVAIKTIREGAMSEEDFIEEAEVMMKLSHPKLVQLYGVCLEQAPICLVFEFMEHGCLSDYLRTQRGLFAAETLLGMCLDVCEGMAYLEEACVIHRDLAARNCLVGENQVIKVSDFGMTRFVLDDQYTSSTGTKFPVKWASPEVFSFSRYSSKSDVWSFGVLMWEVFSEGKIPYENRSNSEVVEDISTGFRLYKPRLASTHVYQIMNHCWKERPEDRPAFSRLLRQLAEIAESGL

[4] = molecular target: T2, Tyrosine-protein kinase ITK/TSK (Homo sapiens) (UniProt Q08881); assay: Inhibition of human ITK assessed as ratio of Kinact to Ki
T2 sequence (whole entry): T1 sequence (Q08881 whole entry)

[5] = tested on: Lung; assay: Drug level in rat lung at 2.3 mg/kg dosed via inhalation measured post perfusion; type: ADME, organism-based; set-up: dose 2.3 mg/kg; conditions: in vivo, inhaled_or_intranasal, read-out: Drug uptake
[6] = tested on: Lung; assay: Drug level in rat lung at 2.3 mg/kg dosed via inhalation measured post cell suspension; type: ADME, organism-based; set-up: dose 2.3 mg/kg; conditions: in vivo, inhaled_or_intranasal, read-out: Drug uptake
[7] = molecular target: Tyrosine-protein kinase BTK (Homo sapiens, UniProt Q06187); assay: Inhibition of BTK (unknown origin) using ATP and Y5 Sox15 substrate mix incubated for 30 mins by fluorescence based assay
[8] = tested on: Rattus norvegicus; assay: Binding affinity to 5HT1A receptor in Sprague-Dawley rat at 0.3 to 10 mg/kg, po after 2 to 8 hrs by PET imaging method; type: functional, organism-based; set-up: route oral
[9] = tested on: Rattus norvegicus; assay: Induction of prolongation of micturition interval in orally dosed Sprague-Dawley rat model of 8-OH-DPAT induced overactive bladder by cystometric study; type: functional; conditions: po, read-out: MED

Chain of cAMP and cAMP-inhibited cGMP 3',5'-cyclic phosphodiesterase 10A (Q9Y233 whole entry, canonical isoform): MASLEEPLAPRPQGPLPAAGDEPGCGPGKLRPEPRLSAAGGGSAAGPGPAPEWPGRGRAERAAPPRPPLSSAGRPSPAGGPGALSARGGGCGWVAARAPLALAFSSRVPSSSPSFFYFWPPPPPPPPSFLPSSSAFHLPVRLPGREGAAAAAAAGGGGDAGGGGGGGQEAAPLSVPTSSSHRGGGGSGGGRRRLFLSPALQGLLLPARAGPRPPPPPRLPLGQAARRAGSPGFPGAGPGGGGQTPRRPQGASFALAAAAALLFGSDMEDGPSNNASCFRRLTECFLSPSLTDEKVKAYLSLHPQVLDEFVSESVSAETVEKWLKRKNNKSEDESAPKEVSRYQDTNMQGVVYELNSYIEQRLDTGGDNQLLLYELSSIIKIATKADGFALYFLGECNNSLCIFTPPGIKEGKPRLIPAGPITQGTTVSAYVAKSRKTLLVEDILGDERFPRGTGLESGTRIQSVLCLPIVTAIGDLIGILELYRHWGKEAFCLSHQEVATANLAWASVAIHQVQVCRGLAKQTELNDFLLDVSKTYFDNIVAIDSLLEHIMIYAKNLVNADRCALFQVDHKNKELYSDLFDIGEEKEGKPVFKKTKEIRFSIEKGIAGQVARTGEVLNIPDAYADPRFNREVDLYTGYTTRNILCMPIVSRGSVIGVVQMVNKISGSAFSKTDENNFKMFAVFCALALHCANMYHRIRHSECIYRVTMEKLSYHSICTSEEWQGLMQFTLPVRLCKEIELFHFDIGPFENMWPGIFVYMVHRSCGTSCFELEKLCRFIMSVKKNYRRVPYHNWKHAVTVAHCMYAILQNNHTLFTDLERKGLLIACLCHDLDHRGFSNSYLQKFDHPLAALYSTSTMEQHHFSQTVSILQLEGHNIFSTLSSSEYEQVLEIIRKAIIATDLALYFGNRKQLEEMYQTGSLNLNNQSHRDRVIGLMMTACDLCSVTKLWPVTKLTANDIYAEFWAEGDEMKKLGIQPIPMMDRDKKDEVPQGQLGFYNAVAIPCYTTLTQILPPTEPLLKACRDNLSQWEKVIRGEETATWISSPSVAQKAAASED
Chain of Tyrosine-protein kinase BTK (Q06187 whole entry): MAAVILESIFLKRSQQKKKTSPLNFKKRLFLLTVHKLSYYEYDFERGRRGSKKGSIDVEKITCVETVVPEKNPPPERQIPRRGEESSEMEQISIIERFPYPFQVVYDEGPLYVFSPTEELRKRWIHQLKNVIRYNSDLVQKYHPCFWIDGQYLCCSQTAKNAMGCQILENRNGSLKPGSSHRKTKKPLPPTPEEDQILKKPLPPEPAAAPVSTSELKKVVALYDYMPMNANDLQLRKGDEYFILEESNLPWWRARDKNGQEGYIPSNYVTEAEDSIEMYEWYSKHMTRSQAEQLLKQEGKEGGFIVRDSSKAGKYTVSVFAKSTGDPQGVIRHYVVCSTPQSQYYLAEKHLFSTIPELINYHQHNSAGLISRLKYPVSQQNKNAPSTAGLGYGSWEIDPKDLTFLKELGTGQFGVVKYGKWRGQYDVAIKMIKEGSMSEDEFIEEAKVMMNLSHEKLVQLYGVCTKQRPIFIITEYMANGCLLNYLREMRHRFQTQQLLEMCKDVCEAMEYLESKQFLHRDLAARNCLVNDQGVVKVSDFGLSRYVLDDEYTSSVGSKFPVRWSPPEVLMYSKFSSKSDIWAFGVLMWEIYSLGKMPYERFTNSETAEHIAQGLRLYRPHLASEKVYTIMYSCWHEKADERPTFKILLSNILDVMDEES

IC50 [1]: 0.06 nM
IC50 [2]: > 1000 nM
SMILES: Cc1nc2ccccc2nc1-c1cc2nc(N3CC[C@@H](F)C3)cc(N([11CH3])C3CCOCC3)n2n1

IC50 [3]: 5 nM
Ratio [4]: 520000 M⁻¹ s⁻¹
concentration [5]: 6 µM
concentration [6]: 0.008 µM
SMILES: C=CC(=O)N1CC[C@H](Nc2cc(CN[C@@H](C)C(C)(C)C)cc(Nc3nc4cccnc4s3)n2)C1

IC50 [7]: 0.5 nM
SMILES: C=CC(=O)Nc1cccc(N(C)c2nc(Nc3cccc(OCCCN(C)C(=O)CCCC(=O)NCCCOCCOCCOCCCNC(=O)CCCC[C@H]4SC[C@H]5NC(=O)N[C@H]54)c3)ncc2C)c1

EC50 [8]: 5.4 nM
SMILES: CNC(=O)c1ccc2ccn(C3CCN(CCc4c(OC)ccc5c4OC(C)(C)CC5=O)CC3)c2c1.O=C(O)/C=C/C(=O)O
minimal effective dose [9]: 0.1 mg/kg
